Source: paper PMC10761660, “Preclinical evaluation of an ^18F-labeled N^ε-acryloyllysine piperazide for covalent targeting of transglutaminase 2” (EJNMMI Radiopharmacy and Chemistry, 2024)

Legend:
Liver microsome assay = type: in vitro ADME, murine; conditions: 40 µM, after 60 min
Description: Microsome experiments with [^18F]7b in the presence of NADPH were performed according to the procedure recently described by us with slight modifications (Lemm et al. [2022]). […] [^18F]7b dissolved in 0.5% ethanol/PBS (100 µL; 0.2% ethanol final, e.g. 108 MBq/mL or 4.1 µM final) was mixed with PBS (112.5 µL) and murine liver microsomes (MLM, 12.5 µL of 20 mg/mL stock; 1 mg/mL final; Gibco™ Cat. No. MSMCPL, Lot. No. MS053-A) in a 1.5 mL Eppendorf tube and the mixture was warmed for 5 min at 37 °C. Subsequently, NADPH (25 µL of freshly prepared 20 mM solution in PBS, 2 mM final) was added and the mixture was incubated at 37 °C. As a control incubation, the NADPH solution was replaced by PBS. At distinct time points (5, 10, 15, 30, and 60 min), an aliquot (40 µL) was withdrawn and added to ice-cold CH3CN (160 µL). The mixture was vortexed for 30 s, stored on ice for 4 min and centrifuged (5 min at 16,100 × g). The resulting supernatant was used for radio-HPLC and radio-TLC analyses. For radio-HPLC, the Shimadzu Nexera X2 UHPLC system described above including the conditions for analysis was used. Radio-TLC was carried out on reversed-phase TLC plates (ALUGRAM RP-18W/UV254 from Macherey–Nagel, Düren, Germany) with a mobile phase of 40% CH3CN in water containing 0.1% trifluoroacetic acid. Visualization of radioactive spots and subsequent analysis was conducted as described above.
Testosterone (40 µM final) was used as positive control for the activity of the MLM and was separately treated and analyzed after incubation times of 5, 10, 15, 30, and 60 min as described above (0% ethanol final; HPLC gradient profile: 45% eluent B for 10 min followed by washing of the column with 45% to 95% eluent B in 1 min, 95% eluent B for 5 min, 95% to 45% eluent B in 1 min, 45% eluent B for 8 min; total time of 25 min).
For that, solutions of [^18F]7b in 0.5% ethanol/PBS (10 µL; 0.1% ethanol final, 17 MBq/mL or 1.14 µM final) were mixed with the respective tenfold concentrated solutions of 7b dissolved in 10% DMSO/PBS (5 µL, 1% DMSO final and 5/10/20/40/80 µM of 7b final), PBS (27.5 µL) and murine liver microsomes (2.5 µL of 20 mg/mL stock) in a 1.5 mL Eppendorf tube and the mixture was warmed for 5 min at 37 °C. Subsequently, NADPH (5 µL of freshly prepared 20 mM solution in PBS, 2 mM final) was added and the mixture was incubated at 37 °C. At distinct time points (5, 10, 15, 20, and 30 min), an aliquot (5 µL) was withdrawn and added to ice-cold CH3CN (40 µL). The subsequent steps were performed as described above including analysis by radio-TLC.
For the t1/2 approach at n.c.a. level, the obtained fractions of intact [^18F]7b (by radio-HPLC or radio-TLC analysis) were plotted against the time. Nonlinear regression was performed by one-phase decay (equation 1) as implemented in GraphPad Prism (GraphPad Prism 9.5.1.733), which provided the t1/2 values. The fraction at X = 0 min, Y0, was constrained to 1.0.1 Y0=Y0-Plateau×e^-k×X+Plateau
Subsequently, the intrinsic clearance, CLint (mL*min^−1*kg^−1), was calculated using equation 2 (Obach et al. [1997]; Schneider et al. [2019])2 CLint=ln2/t1/2min×fuinc×1/MLM(mg/mL)×microsomalprotein/liverweightmg/g×liverweight/bodyweightg/kg with the scaling factors of 60.1 mg/g (microsomal protein/liver weight for rats as no value for mice could be found) (Carlile et al. [1997]) and 87.5 g/kg (liver weight/body weight for mice) (Davies and Morris [1993]). The concentration of the MLMs was 1 mg/mL.
For the Vmax/Km approach, the obtained fractions of intact [^18F]7b (by radio-TLC analysis) were plotted against the time (fraction plot). The concentration plot was obtained by transformation of the fractions into concentrations of 7b by taking the experimentally determined molar activity of [^18F]7b into account (i.e. final concentration of 1.14, 6.16, 11.14, 21.14, 41.14, and 81.14 µM for 7b in the performed experiments). Both plots were analyzed by nonlinear regression according to one-phase decay (equation 1). […]

[1] = set-up: method as in Schuppan et al. [2021]; conditions: patients with celiac disease; ref Schuppan et al. [2021]; cited from earlier work

For C[C@]12CC[C@H]3[C@@H](CCC4=CC(=O)CC[C@@]43C)[C@@H]1CC[C@@H]2O [Testosterone, reference compound], the “consumption of positive control by MLM” value (Liver microsome assay) was “completely consumed”.

In the case of CCC(CC)CNC(=O)Cn1cccc(NC(=O)[C@H](CC/C=C/C(=O)OC)NC(=O)c2cncn2C)c1=O [ZED1227], the “effect on duodenal mucosa” value [1] is given as “attenuated damage of the duodenal mucosa” and the tolerability [1] is given as “well-tolerated”.
